# Assay results published in paper PMC7246765, “Development of a Radiofluorinated Adenosine A2B Receptor Antagonist as Potential Ligand for PET Imaging” (International Journal of Molecular Sciences, 2020).
# Values joined by “and” are separate entries in the source; they are usually repeats but may differ in a detail not shown here. Identical values can stand only once.
# Assays:
# [1] = molecular target: T1, human adenosine A3 receptor (Homo sapiens, UniProt P0DMS8); test: Competitive radioligand binding with [3H]PSB-11, membranes of CHO or HEK cells
# T1 construct: host or cells: CHO or HEK cells
# T1 sequence (P0DMS8 1-318): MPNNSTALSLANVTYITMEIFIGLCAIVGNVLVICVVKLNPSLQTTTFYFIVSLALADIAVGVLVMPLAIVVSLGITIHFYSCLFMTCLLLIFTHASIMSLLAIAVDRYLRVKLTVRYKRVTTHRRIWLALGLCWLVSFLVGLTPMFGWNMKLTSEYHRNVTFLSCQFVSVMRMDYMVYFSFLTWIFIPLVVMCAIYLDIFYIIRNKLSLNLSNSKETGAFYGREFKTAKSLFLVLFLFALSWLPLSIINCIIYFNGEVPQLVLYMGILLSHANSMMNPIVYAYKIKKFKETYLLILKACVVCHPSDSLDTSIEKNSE
# Method: (§1) The binding affinities of 2 and 9 at the four human adenosine receptor subtypes A2B, A2A, A1, and A3, presented in Table 1, were determined in competitive binding assays using appropriate radioligands and membrane preparations of Chinese hamster ovary (CHO) cells or human embryonic kidney (HEK) cells, respectively, recombinantly expressing the corresponding human receptor subtype.
# (§2) Membrane preparations of recombinant CHO or HEK (human embryonic kidney) cells expressing the respective human adenosine receptor subtype were obtained according to Borrman et al. or purchased from Perkin Elmer, Germany. Radioligand binding assays using human A1, A2A, A2B and A3 receptors were performed according to Alnouri et al..
# (§3) [^3H](R)-8-ethyl-4-methyl-2-(phenyl)1,4,7,8-tetrahydro-5H-imidazo[2,1-i]purin-5-one ([^3H]PSB-11, molar activity: 53 Ci/mmol, 1 nM [30]) for the A3 receptor. Three separate experiments were performed to determine the Ki values. All data were analyzed with GraphPad Prism, Version 4.1 (GraphPad Inc., La Jolla, CA,USA).
# [2] = molecular target: T2, human adenosine A1 receptor (Homo sapiens, UniProt P30542); test: Competitive radioligand binding with [3H]CCPA, membranes of CHO or HEK cells
# T2 construct: host or cells: CHO or HEK cells
# T2 sequence (P30542 1-326): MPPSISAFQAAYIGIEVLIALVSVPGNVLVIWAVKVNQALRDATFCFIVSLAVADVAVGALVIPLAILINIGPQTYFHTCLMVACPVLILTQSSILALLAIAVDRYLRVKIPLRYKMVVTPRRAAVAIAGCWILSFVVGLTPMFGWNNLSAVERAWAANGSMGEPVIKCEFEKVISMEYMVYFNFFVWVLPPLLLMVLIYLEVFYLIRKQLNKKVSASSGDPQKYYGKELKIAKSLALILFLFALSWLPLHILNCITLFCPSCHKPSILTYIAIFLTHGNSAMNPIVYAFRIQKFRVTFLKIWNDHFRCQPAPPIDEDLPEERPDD
# Method: as §1, §2
# [^3H]2-Chloro-N^6cyclopentyladenosine ([^3H]CCPA, molar activity: 58 Ci/mmol, 1 nM [28]) for the A1 receptor,
# as §3
# [3] = molecular target: T3, human adenosine A2B receptor (Homo sapiens, UniProt P29275); test: Competitive radioligand binding with [3H]PSB-603, membranes of CHO or HEK cells; conditions: mean ± SEM of three independent assays
# T3 construct: host or cells: CHO or HEK cells
# T3 sequence (P29275 1-332): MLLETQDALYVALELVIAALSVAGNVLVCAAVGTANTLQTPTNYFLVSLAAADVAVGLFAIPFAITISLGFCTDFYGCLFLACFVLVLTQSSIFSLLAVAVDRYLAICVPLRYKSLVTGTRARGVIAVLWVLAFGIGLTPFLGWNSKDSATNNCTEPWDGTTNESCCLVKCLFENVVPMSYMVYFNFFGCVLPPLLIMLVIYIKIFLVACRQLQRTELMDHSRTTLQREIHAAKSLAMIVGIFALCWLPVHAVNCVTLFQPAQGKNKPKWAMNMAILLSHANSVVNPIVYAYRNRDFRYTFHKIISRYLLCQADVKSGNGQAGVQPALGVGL
# Method: as §1, §2
# [^3H]8-(4-[4-(4-chlorophenyl)piperazine-1-sulfonyl]phenyl)-1-propyl-2,3,6,7-tetrahydro-1H-purine-2,6-dione ([^3H]PSB-603, molar activity: 73Ci/mmol, 0.3 nM [26]) for the A2B receptor, and
# as §3
# [4] = molecular target: T4, human adenosine A2A receptor (Homo sapiens, UniProt P29274); test: Competitive radioligand binding with [3H]MSX-2, membranes of CHO or HEK cells
# T4 construct: host or cells: CHO or HEK cells
# T4 sequence (P29274 whole entry): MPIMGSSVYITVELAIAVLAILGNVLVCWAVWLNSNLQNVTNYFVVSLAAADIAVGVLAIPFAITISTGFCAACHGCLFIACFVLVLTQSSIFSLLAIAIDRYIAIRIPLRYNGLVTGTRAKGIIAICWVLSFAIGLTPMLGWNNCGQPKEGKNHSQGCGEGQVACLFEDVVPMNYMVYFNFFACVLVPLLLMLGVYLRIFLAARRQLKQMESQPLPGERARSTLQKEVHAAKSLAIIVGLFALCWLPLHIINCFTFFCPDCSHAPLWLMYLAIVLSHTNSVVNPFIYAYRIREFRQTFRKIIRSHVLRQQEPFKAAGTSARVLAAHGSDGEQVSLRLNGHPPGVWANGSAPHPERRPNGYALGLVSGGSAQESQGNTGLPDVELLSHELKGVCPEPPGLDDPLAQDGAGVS
# Method: as §1, §2
# [^3H]3-(3-hydroxypropyl)-7-methyl-8-(m-methoxystyryl)-1-propargylxanthine, ([^3H]MSX-2, molar activity: 84 Ci/mmol, 1 nM [29]) for the A2A receptor,
# as §3
# [5] = design: method as in PMID 30104122; conditions: mice, 30 min p.i.; cited from earlier work
# [6] = In vivo metabolism in mice, plasma and urine analysed by RP-HPLC and MLC; design: species or system CD-1 mice; conditions: 30 min p.i.
# Method: The metabolism of [^18F]9 in vivo was investigated in CD-1 mice by taking blood and urine samples at 30 min post i.v. injection of the radiotracer (n = 2). Analysis of the respective samples was performed by micellar (MLC) and reversed-phase chromatography (RP-HPLC) as two complementary HPLC methods. MLC is also a reversed-phase HPLC mode, but it uses a mobile phase consisting of an aqueous solution with a surfactant above its critical micellar concentration. The formed micelles are able to dissolve the proteins and other components of a biological sample and therefore enable a direct injection of the plasma probe into the HPLC system without eliminating the tissue matrix. In contrast, for RP-HPLC analysis, aliquots of the plasma samples were treated with a mixture of ACN/water to precipitate the proteins, resulting in recoveries of activity of about 93%.
# For metabolism studies (n = 2), [^18F]9 (30–40 MBq) was administered as a bolus in awake female CD-1 mice (10–12 weeks, 25–32 g) via the tail vein. At 30 min p.i., the animals were slightly anesthetized with isoflurane, and blood was sampled from retro-orbital plexus. Blood plasma was obtained as a supernatant after centrifugation of the whole blood samples (14,000 rpm, 1 min; Centrifuge 5418, Eppendorf Vertrieb Deutschland GmbH, Wesseling-Berzdorf, Germany). After cervical luxation of the animals, urine samples were obtained. All samples were weighed and the respective activity measured in a dose calibrator (ISOMED 2010; MED Nuklear-Medizintechnik Dresden GmbH, Dresden, Germany).
# MLC: For preparation of the MLC samples, mouse plasma (20–50 µL) was dissolved in 200 µL of 200 mM aq. sodium dodecyl sulfate (SDS) and injected into the MLC system. The MLC system was built up as described previously. Separations were performed using a Reprosil-Pur C18-AQ column (250 × 4.6 mm + 10 mm pre-column, particle size: 10 µm) and an eluent mixture of EtOH/100 mM aq. SDS/25 mM (NH4)2HPO4 in gradient mode (0–10 min at 100% 100 mM aq. SDS, 10–15 min up to 10% EtOH, 15–20 min at 10% EtOH, 20–21 min up to 100% 100 mM aq. SDS; 21–30 min at 100% 100 mM aq. SDS) at a flow rate of 1.0 mL/min. The same HPLC apparatus was used as described in the radiochemistry part in generals.
# RP-HPLC: Protein precipitation was performed by addition of an ice-cold mixture of ACN/water (9/1; v/v) in a ratio of 4:1 (v/v) of organic solvent to plasma. The sample workup was performed according to a procedure previously described in detail. The urine samples were diluted with water and directly injected. To analyze the samples, the same HPLC apparatus and method was used as described in the radiochemistry section.
# [7] = Shake-flask lipophilicity, n-octanol/phosphate-buffered saline; type: physicochemical; conditions: n-octanol/PBS, n = 4
# From the text: The partition coefficient of [^18F]9 was experimentally determined for the n-octanol/PBS system by the shake-flask method as described previously.
# [8] = Dynamic small-animal PET biodistribution, baseline and blocking with compound 2; type: in vivo, female CD-1 mice; conditions: for SUV 60 min p.i. lung / TAC peak SUV lung: single animals, n = 2
# From the text: We then performed a pilot study to estimate very basic characteristics of the pharmacokinetics of the new radiotracer via dynamic small-animal PET imaging with [^18F]9 in female CD-1 mice. The time–activity curves (TACs) obtained in different tissues under both baseline (administration of vehicle, n = 2) and blocking (administration of compound 2, n = 2) conditions are presented in Figure 3; the whole-body maximum intensity projections are shown in Figure S3 in the Supplementary Material. The overall biodistribution of [^18F]9 under baseline conditions corresponded to the known quite ubiquitous but physiologically not very dense expression of A2B receptors. Although higher levels of the A2B receptor protein have been reported in the literature for certain cell types, such as alveolar epithelial cells and endothelial cells, the resemblance of the TACs in peripheral organs such as lungs under baseline and blocking conditions indicated no target-specific retention of [^18F]9 (TAC peak SUV lung: 3.09 and 2.88 vs. 2.30 and 1.57, resp.; SUV60 min p.i., lung: 0.44 and 0.25 vs. 0.32 and 0.20, resp.). […] This discrepancy between our and Petroni’s results might indicate differences in the biological effects exerted by agonistic (BAY60-6583) or antagonistic (compound 2) A2B receptor ligands, as well as model-related differences such as the expression of A2B receptors. The latter option could also explain the about 10-fold lower uptake of [^18F]9 in the brown adipose tissue (BAT) of female CD-1 mice in comparison to the uptake of [^11C]-4 in the BAT of male Wistar rats.
# The biodistribution of the radiotracer was assessed in female CD-1 mice (30.6 ± 0.4 g bodyweight) using a dedicated small-animal PET-MRI scanner (nanoScan, Mediso, Hungary) over 60 min followed by a subsequent T1-weighted MR. The anaesthetized (2% isoflurane, carrier gas mixture of 40% air and 60% O2) female CD-1 mice were kept on a heated animal bed to maintain body temperature during imaging. Vehicle (10% DMSO in isotonic 0.9% NaCl solution) or compound 2 at 1 mg/kg bodyweight were co-injected with the tracer ([^18F]9: injected dose of 6.9 ± 0.1 MBq, equivalent to 10.4 ± 0.9 fmol/g bodyweight) intravenously 20 seconds after starting the dynamic PET acquisition, performed in normal mode and with a coincidence mode 1–5. For subsequent dynamic reconstructions (Nucline v2.01, Mediso, Hungary) by Ordered Subset Expectation Maximization (OSEM3D) with an attenuation correction with four iterations, six subsets, and a voxel size of 0.4 mm^3, list mode data were sorted into sinograms (12 × 10 s, 6 × 30 s, 5 × 60 s, and 10 × 300 s). PMOD software (v4.005, PMOD Technologies LLC, Zurich, Switzerland) was used for analysis of reconstructed studies and the results are expressed as standardized uptake value (SUV) given in mean ± SD.
# [9] = blocking (compound 2, 1 mg/kg co-injected)
compound,measurement,setting,value
"O=c1[nH]c(=O)c2cc(-c3ccnc(F)c3)c(-c3ccco3)nc2[nH]1 [Compound 9, 6-(2-Fluoropyridin-4-yl)-7-(furan-2-yl)pyrido[2,3-d]pyrimidine-2,4(1H,3H)-dione]",Ki,"[1]; [3H]PSB-11, mean ± SEM of three independent assays",286 ± 10 nM
same,Selectivity Ratio Ki(Ax)/Ki(A2B): A3/A2B,[1]; ratio of Ki values,114
same,Ki,"[2]; [3H]CCPA, mean ± SEM of three independent assays",149 ± 26 nM
same,Selectivity Ratio Ki(Ax)/Ki(A2B): A1/A2B,[2]; ratio of Ki values,59
same,Ki,[3],2.51 ± 0.58 nM
same,Ki,"[4]; [3H]MSX-2, mean ± SEM of three independent assays",107 ± 15 nM
same,Selectivity Ratio Ki(Ax)/Ki(A2B): A2A/A2B,[4]; ratio of Ki values,43
O=C(Nc1cnc(-c2ccnc([18F])c2)c(-c2ccccc2F)n1)C1CC1 [[^18F]1],intact radiotracer in plasma,[5],35%
O=c1[nH]c(=O)c2cc(-c3ccnc([18F])c3)c(-c3ccco3)nc2[nH]1 [[^18F]9],activity concentration in urine (SUV),[6]; CD-1 mice,75
same,"intact radiotracer, fraction of total activity in plasma","[6]; CD-1 mice, i.v., n = 2",about 60%
same,"intact tracer in plasma, RP-HPLC, calculated considering the 93% recovery",[6]; mouse plasma,60%
same,"intact radiotracer in plasma, MLC","[6]; mouse plasma, exemplary MLC chromatogram",57%
same,"intact radiotracer in plasma, RP-HPLC","[6]; mouse plasma, exemplary RP-HPLC chromatogram",64%
same,logD,[7],1.4 ± 0.1
same,SUV 60 min p.i. lung,[8]; baseline (vehicle),0.44 and 0.25
same,TAC peak SUV lung,[8]; baseline (vehicle),3.09 and 2.88
same,SUV brain after 60 min p.i.,"[8]; baseline, mean (single values)",0.11 (0.14 and 0.08)
same,initial TAC peak SUV brain,"[8]; baseline, mean (single values)",0.19 (0.20 and 0.17)
same,SUV 60 min p.i. lung,[8]; [9],0.32 and 0.20
same,TAC peak SUV lung,[8]; [9],2.30 and 1.57
same,TAC peak SUV brain,"[8]; co-administration of compound 2, mean (single values)",0.12 (0.11 and 0.13)
same,fold lower uptake in brown adipose tissue (BAT) versus [11C]-4 in BAT of male Wistar rats,"[8]; female CD-1 mice, comparison with ref 13",about 10 fold
